Measured values taken from PubChem BioAssay (NCI).
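Five concentrations, 48 hours, 96-well plates. GI50 marks 50% less growth. TGI: total growth inhibition.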

Key:
Test in all cases: DTP human tumour cell line panel, 48 h
MDA-MB-435 = test system: MDA-MB-435
M14 melanoma = test system: M14 melanoma
A498 renal = test system: A498 renal
SNB-19 CNS = test system: SNB-19 CNS
SR leukemia = test system: SR leukemia
OVCAR-4 ovarian = test system: OVCAR-4 ovarian
NCI-H522 lung = test system: NCI-H522 lung
A549 NSCLC = test system: A549 NSCLC
HCC-2998 colon = test system: HCC-2998 colon
UACC-62 melanoma = test system: UACC-62 melanoma
UACC-257 melanoma = test system: UACC-257 melanoma
NCI-H226 lung = test system: NCI-H226 lung
PC-3 prostate = test system: PC-3 prostate
SK-MEL-2 melanoma = test system: SK-MEL-2 melanoma
SF-268 CNS = test system: SF-268 CNS
HOP-92 NSCLC = test system: HOP-92 NSCLC
OVCAR-8 ovarian = test system: OVCAR-8 ovarian
CAKI-1 renal = test system: CAKI-1 renal
RXF 393 renal = test system: RXF 393 renal
SK-MEL-28 melanoma = test system: SK-MEL-28 melanoma
BT-549 breast = test system: BT-549 breast
DU-145 prostate = test system: DU-145 prostate
SF-295 CNS = test system: SF-295 CNS
MALME-3M melanoma = test system: MALME-3M melanoma
SF-539 CNS = test system: SF-539 CNS
UO-31 renal = test system: UO-31 renal
SN12C renal = test system: SN12C renal
ACHN renal = test system: ACHN renal
RPMI-8226 leukemia = test system: RPMI-8226 leukemia

In the case of `Clc1ccc(-c2ccc(CNCC3CCNCC3)o2)c(-c2ccccc2)c1`, the GI50 (MDA-MB-435) is reported as 1.61 µM, the TGI (MDA-MB-435) is reported as 3.05 µM and the GI50 (M14 melanoma) is reported as 1.63 µM. It also gave a TGI (M14 melanoma) of 3.11 µM, a GI50 (A498 renal) of 1.71 µM and a TGI (A498 renal) of 3.24 µM. The GI50 (SNB-19 CNS) was 1.64 µM, the TGI (SNB-19 CNS) was 3.16 µM and the GI50 (SR leukemia) was 0.347 µM. It also gave a TGI (SR leukemia) of 1.27 µM, a GI50 (OVCAR-4 ovarian) of 1.85 µM and a TGI (OVCAR-4 ovarian) of 3.54 µM. It also gave a GI50 (NCI-H522 lung) of 1.85 µM, a TGI (NCI-H522 lung) of 3.63 µM and a GI50 (A549 NSCLC) of 1.79 µM. It also gave a TGI (A549 NSCLC) of 3.56 µM, a GI50 (HCC-2998 colon) of 1.62 µM and a TGI (HCC-2998 colon) of 3.2 µM. For the same compound, the GI50 (UACC-62 melanoma) was 1.75 µM, the TGI (UACC-62 melanoma) was 3.27 µM and the GI50 (UACC-257 melanoma) was 2.03 µM. The TGI (UACC-257 melanoma) was 3.57 µM, the GI50 (NCI-H226 lung) was 1.66 µM and the TGI (NCI-H226 lung) was 3.68 µM. For the same compound, the GI50 (PC-3 prostate) was 1.38 µM, the TGI (PC-3 prostate) was 2.76 µM and the GI50 (SK-MEL-2 melanoma) was 1.76 µM. The TGI (SK-MEL-2 melanoma) was 3.31 µM, the GI50 (SF-268 CNS) was 1.62 µM and the TGI (SF-268 CNS) was 3.27 µM. It also gave a GI50 (HOP-92 NSCLC) of 1.01 µM, a TGI (HOP-92 NSCLC) of 2.23 µM and a GI50 (OVCAR-8 ovarian) of 1.87 µM. It also gave a TGI (OVCAR-8 ovarian) of 3.5 µM, a GI50 (CAKI-1 renal) of 1.51 µM and a TGI (CAKI-1 renal) of 2.9 µM. The GI50 (RXF 393 renal) was 1.36 µM, the TGI (RXF 393 renal) was 2.79 µM and the GI50 (SK-MEL-28 melanoma) was 1.79 µM. For the same compound, the TGI (SK-MEL-28 melanoma) was 3.27 µM, the GI50 (BT-549 breast) was 1.71 µM and the TGI (BT-549 breast) was 3.2 µM. It also gave a GI50 (DU-145 prostate) of 1.82 µM, a TGI (DU-145 prostate) of 3.33 µM and a GI50 (SF-295 CNS) of 1.57 µM. For the same compound, the TGI (SF-295 CNS) was 3 µM, the GI50 (MALME-3M melanoma) was 1.88 µM and the TGI (MALME-3M melanoma) was 3.54 µM. The GI50 (SF-539 CNS) was 1.65 µM, the TGI (SF-539 CNS) was 3.12 µM and the GI50 (UO-31 renal) was 1.37 µM. It also gave a TGI (UO-31 renal) of 2.76 µM, a GI50 (SN12C renal) of 1.54 µM and a TGI (SN12C renal) of 3.03 µM. The GI50 (ACHN renal) was 1.67 µM, the TGI (ACHN renal) was 3.06 µM and the GI50 (RPMI-8226 leukemia) was 1.3 µM.
